“Also recorded” adds a separate entry of the source.

A short description of data set [1]: Stability of semaglutide in solution (vehicle formulation). The data set is classed as physicochemical. Particulars: 4° C. As for the experimental part:
In in vitro models, semaglutide (Creative Peptides, Catalog #910463-68-2) was tested in concentrations of 10 nM, 100 nM, and 1 μM in 1% DMSO. Vehicle treated cells were dosed with 1% DMSO. In in vivo models, semaglutide (Creative Peptides, Catalog #910463-68-2) was tested in concentrations of 2.571 μg/mouse and 25.71 μg/mouse prepared using the vehicle formulation for a total injection volume of 0.2 ml. Compound was stable in solution for 56 days at 4° C. Semaglutide was utilized at 98% HPLC purity.

A further data set concerns Cln3^Δex7/8 mice. Nature of the data set: Autofluorescent storage material (ASM) in brain of Cln3^Δex7/8 mice. The data set is classed as in vivo, mouse. The conditions noted are these: 16 weeks; for auto florescent storage material: LM11A-31 0.6 mg/mL in drinking water. As for the experimental part: FIG. 16. Effects of treatment with LM11A-31 on auto florescent storage material. […] Upon sacrifice, one hemisphere of brain was sectioned at 50 microns on a vibratome; DAB staining immunohistochemistry was then performed using anti-GFAP (Dako, Z0334; 1:5000), anti-CD68 (AbD Serotec, MCA1957; 1:2000), anti-rabbit biotinylated (Vector Labs. BA-1000 1:1000), and anti-rat (Vector Labs, BA-9400 1:1000). Sections were imaged and analyzed using an Aperio Digital Pathology Slide Scanner (AT2) and associated software. The flash-frozen brain was sectioned into 16 μm slices and placed on slides. Slides were post-fixed for 20 minutes in chilled 10% neutral buffered formalin (NBF) and underwent serial ethanol dehydration. To quantify accumulation of autofluorescent storage material, DAPI was applied to slides and coverslipped with aqueous mounting media (Dako Faramount, Agilent, S302580-2). Sections were imaged using a Nikon NiE microscope and associated software. […] Nested one-way ANOVA. Mean±S.E.M. Sidak's multiple comparisons test. Compared to the wild type vehicle treated group. #p<0.05, ##p<0.01, ###p<0.001, ####p<0.0001. Compared to mutant vehicle treated group. *p<0.05, **p<0.01, ***p<0.001, ****p<0.0001. Scale bar=100 μm.
Since LM11A-31 reduced lysosomal pathology and increased lysosomal function in cell models of diverse lysosomal storage disorders, we asked whether treatment with LM11A-31 could reduce histopathological markers of disease severity in animal models of CLN3-Batten disease. […] Sections were imaged and analyzed using an Aperio Digital Pathology Slide Scanner (AT2) and associated software. […] To quantify accumulation of autofluorescent storage material, DAPI was applied to slides and coverslipped with aqueous mounting media (Dako Faramount, Agilent, S302580-2). […]
Specific experimental details are included in figure legends. […] Body weight was measured at 4, 6, 8, 12, and 16 weeks of age. […]

The next data set has as its system Cathepsin D. The data set is described as follows: Cathepsin D enzyme in MEF lysates. The data set is classed as cell-based, mouse. How it is done: Since LM11A-31 stimulates the nuclear translocation of transcription factors responsible for lysosome biogenesis, we asked whether LM11A-31 increases the overall activity levels of lysosomalenzymes in cellulo. […] Wild type (WT) and mutant cells were treated with vehicle or LM11A-31 (100 nM). Cells were plated on day 0 and dosed with drug-containing media on DIV3 and DIV5. Cells were lysed, and protein quantification and enzyme activity assay were performed on DIV7. Data was analyzed with GraphPad Prism™. Two-way ANOVA. Mean±S.E.M. Tukey's multiple comparisons test. *p<0.05, **p<0.01, ***p<0.001, ****p<0.0001. […] Palmitoyl-protein thioesterase 1 (PPT1) is the lysosomal enzyme mutated in CLN1 disease and removes thioester-linked fatty acyl groups from modified cysteines of substrate proteins. Tripeptidyl peptidase 1 (TPP1) is the lysosomal enzyme mutated in CLN2 disease and has broad substrate specificity against various proteins degraded in the lysosome after cleavage. Mutations in the CTSD gene, encoding cathepsin d, a lysosomal protease that is involved in the recycling and degradation, is a known cause of Cln10 disease.

The test system of a further data set is TFEB target genes. Nature of the data set: Comparative transcriptomic analysis (RNA sequencing, DEGs) in wild type MEFs. Type of data set: cell-based, mouse. Particulars: 40 nM, dosed DIV3, RNA isolation DIV5. How it is done:
Comparative transcriptomic analysis of differentially expressed genes in AF38469 treated and vehicle treated wild type mouse embryonic fibroblasts. Wild type mouse embryonic fibroblasts were treated with vehicle or AF38469 (40 nM). Cells were plated on in vitro day 0, and cells were dosed with drug-containing media on DIV3, collection and RNA isolation occurred on DIV5. RNA sequencing and differentially expressed gene (DEG) analysis was performed with Novogene. DEGs were compared to lists of lysosomal genes and genes under TFEB regulation.

With semaglutide, in data set [1], the stable in solution came out at 56 days. The “accumulation of autofluorescent storage material (ASM)” value in the data set on Cln3^Δex7/8 mice (semaglutide 2.571 μg/mouse, 25.71 μg/mouse s.c. three times a week, S1BF, CA3, VPM/VPL) is given as “had no significant effect”.

Regarding `CC[C@H](C)[C@H](N)C(=O)NCCN1CCOCC1` [LM11A-31, N-[2-(morpholin-4-yl)ethyl]-L-isoleucinamide], the “levels of Cathepsin D” value in the data set on Cathepsin D (LM11A-31 100 nM, Cln2^R207X and Cln3^Δex7/8 MEFs, DIV7) is given as “significantly decreased”. Further, in the data set with Cathepsin D (LM11A-31, overall statement (FIG. 15B)), the “overall levels of activity for Cathepsin D enzyme in cell lysates” value is recorded as “increased the overall levels of activity”. In addition, the “auto florescent storage material” value is “did not decrease” in the data set on Cln3^Δex7/8 mice (S1BF, CA3, or motor cortex); “reduced ASM to levels that were not statistically distinguishable from wild type; also recorded: slight decrease” in the data set on Cln3^Δex7/8 mice (VPM/VPL and visual cortex).

`Cc1cccc(NC(=O)c2ccc(C(F)(F)F)cc2C(=O)O)n1` [AF38469, 2-((6-methylpyridin-2-yl)carbamoyl)-5-(trifluoromethyl)benzoic acid]: in the data set with TFEB target genes, the “all lysosomal differentially expressed genes or lysosomal genes not regulated by TFEB” value is “no distinct pattern of up or down regulation” and the “expression of TFEB target genes” value is recorded as “stimulated increased expression; also recorded: stimulates; also recorded: distinct pattern of upregulation”.

For the origin of these results see patent publication US20240197700A1, “Methods and Compositions for Treating Lysosomal Storage Disorders” (Sanford Health, priority 2021, published 2024).
